From patent publication EP0158545A1, “[Alpha-(alkylaminomethyl)-benzylthio]-acetic-acid derivatives, process for their preparation and their therapeutic use” (priority 1984, dated 1985)
“Also recorded” adds a separate entry of the source.

Assays:
[1] = system: chiens; assay: Cardiovascular tests in dogs, intraduodenal successive doses; type: in vivo, chien
Description: a) Quatre chiens (poids moyen : 13,8 kg) anesthésiés au nembutal reçoivent le CRL 41 250 par voie intraduodénale, aux doses successives de 0,1 mg/kg, 0,5 mg/kg, 1 mg/kg, 2,5 mg/kg, 5 mg/kg puis 10 mg/kg. On mesure la pression artérielle, la fréquence cardiaque, le débit artériel fémoral, le débit artériel vertébral, la température rectale et on observe la coloration de la peau.
a) Deux chiens (poids moyen : 14,5 kg) reçoivent le CRL 41 252 par voie intraduodénale, aux doses successives de 0,1 mg/kg, 0,5 mg/kg, 1 mg/kg, 2,5 mg/kg, 5 mg/kg, 10 mg/kg et 20 mg/kg. On mesure la pression artérielle, la fréquence cardiaque, le débit artériel fémoral, le débit artériel vertébral, les températures rectale et cutanée et on observe la coloration de la peau.

[2] = system: chiens; assay: Influence on isoprenaline effects, dog; type: in vivo; details: chien
From the text: (§1) b) Sur les mêmes chiens on a étudié l'influence du produit vis à vis de l'isoprénaline et de la noradrénaline.
Avec 10,pg/kg I.V. d'isoprénaline la pression artérielle diastolique du CRL 41 252 passe de 128 à […] ([…] à 6,4 x 10^3 Pa), […]

[3] = system: chiens; assay: Influence on noradrenaline hypertension, dog; type: in vivo; details: chien
Description: as §1
L'hyptertension à la noradrénaline (2 µg/kg I.V.) est augmentée par le CRL 41 252 ([…]), la pression artérielle systolique passe de 208 à 352 mmHg (soit environ de 2,77 x 10^4 à 4,7 x 10^4Pa) au lieu de 204 à 328 mmHg (soit environ de 2,71 à 4,3 x 10 Pa).

[4] = system: système nerveux central (SNC); assay: General statement of CNS (antidepressant, sedative) properties; type: in vivo
[5] = system: chiens; assay: Cardiovascular tests in dogs, intraduodenal successive doses; type: in vivo; details: chien, injection I.M. de 10 mg/kg
[6] = chien, successive I.D. doses 0,1 to 20 mg/kg

## CC(C)(C)NCC(SCC(N)=O)c1ccccc1F (racemic) [CRL 41 252, fumaratede [α-(tertiobutylaminométhyl)-2-fluorobenzyl]-thioacétamide]
[1]; [6]
  pression artérielle et fréquence cardiaque: n'a pas d'effet sur la pression artérielle ni sur la fréquence cardiaque
  températures rectale et cutanée: augmente les températures rectale et cutanée
[1]; chien, voie intraduodénale, à partir de 10 mg/kg I.D.
  débits fémoraux: augmente les débits fémoraux à partir de la dose de 10 mg/kg I.D.
[1]; general statement
  effets vasodilatateurs (propriétés cardiovasculaires): effets vasodilatateurs intéressants; also recorded: effets vasodilatateurs bénéfiques
[2]; after dose cumulée 39,1 mg/kg I.D., control 152
  pression artérielle diastolique, before isoprénaline: 128 mmHg
[2]; after dose cumulée 39,1 mg/kg I.D., control 192
  fréquence cardiaque, before isoprénaline: 215 battements/ minute
[2]; after dose cumulée de 39,1 mg/kg I.D.
  effets de l'isoprénaline: légèrement diminués
[2]; isoprénaline 10,pg/kg I.V., after dose cumulée 39,1 mg/kg I.D., control 48
  pression artérielle diastolique, after isoprénaline: 58 mmHg
[2]; isoprénaline 10,pg/kg I.V., after dose cumulée 39,1 mg/kg I.D., control 310
  fréquence cardiaque, after isoprénaline: 302 battements/ minute
[3]; after dose cumulée 39,1 mg/kg I.D., control 204
  pression artérielle systolique, before noradrénaline: 208 mmHg
[3]; noradrénaline 2 µg/kg I.V., after dose cumulée 39,1 mg/kg I.D., control 328
  pression artérielle systolique, after noradrénaline: 352 mmHg
[3]; noradrénaline 2 µg/kg I.V., dose cumulée de 39,1 mg/kg I.D.
  hypertension à la noradrénaline: augmentée
[4]
  propriétés antidépressives et sédatives: propriétés antidépressives et sédatives
[5]
  débits fémoraux: cet effet étant confirmé par l'injection I.M. de 10 mg/kg
